According to publication PMC7316778 (Nature Communications, 2020):
Values joined by “and” are separate entries in the source; they are usually repeats but may differ in a detail not shown here. Equal entries are not always repeated. Where two headings read alike, the source gives them in different places.

How the values were obtained:
Test in all cases: SelectScreen kinase assay
ABL1 = ABL1 (Homo sapiens, UniProt P00519)
Description: (§1) Selectivity profiling assays were performed by the Invitrogen SelectScreen™ Services. […] The concentration of ATP was selected to be equal to the KM, unless indicated otherwise.

ACVR1 (ALK2) = ACVR1 (ALK2) (Homo sapiens, UniProt Q04771)
Description: as §1

BRSK2 = molecular target: T1, BRSK2 (Homo sapiens, UniProt Q8IWQ3)
T1 sequence (Q8IWQ3 1-736): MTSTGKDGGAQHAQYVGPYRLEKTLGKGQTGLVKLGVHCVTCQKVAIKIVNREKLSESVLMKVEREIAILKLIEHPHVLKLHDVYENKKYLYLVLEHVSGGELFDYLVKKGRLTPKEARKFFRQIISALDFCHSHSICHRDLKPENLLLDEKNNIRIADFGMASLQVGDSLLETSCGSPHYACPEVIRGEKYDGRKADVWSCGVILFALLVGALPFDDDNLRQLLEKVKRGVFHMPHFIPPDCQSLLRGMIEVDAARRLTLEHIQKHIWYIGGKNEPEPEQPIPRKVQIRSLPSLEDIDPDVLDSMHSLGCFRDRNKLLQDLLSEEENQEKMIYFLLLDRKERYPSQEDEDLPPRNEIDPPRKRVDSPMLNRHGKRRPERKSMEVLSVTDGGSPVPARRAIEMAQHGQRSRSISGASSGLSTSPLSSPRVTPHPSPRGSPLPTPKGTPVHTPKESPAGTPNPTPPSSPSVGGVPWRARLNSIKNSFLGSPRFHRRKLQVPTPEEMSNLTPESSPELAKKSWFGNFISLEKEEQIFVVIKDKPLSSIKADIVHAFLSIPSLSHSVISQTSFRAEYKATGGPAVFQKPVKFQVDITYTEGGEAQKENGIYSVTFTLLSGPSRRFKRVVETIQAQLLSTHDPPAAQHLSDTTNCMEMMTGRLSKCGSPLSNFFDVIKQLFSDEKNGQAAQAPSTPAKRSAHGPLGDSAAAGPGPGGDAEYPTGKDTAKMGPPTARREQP
Description: as §1

EGFR (ErbB1) = EGFR (ErbB1) (Homo sapiens, UniProt P00533)
Description: as §1

EPHA8 = EPHA8 (Homo sapiens, UniProt P29322)
Description: as §1

FLT4 (VEGFR3) = conditions: IC50 on that kinase divided by IC50 on FES^S700C
Description: as §1

GRK7 = GRK7 (Homo sapiens, UniProt Q8WTQ7); conditions: 1 h, 1 μM WEL028, 1 h preincubation
Description: as §1

IKBKE (IKK epsilon) = IKBKE (IKK epsilon) (Homo sapiens, UniProt Q14164); conditions: 1 h, 1 μM WEL028, 1 h preincubation
Description: as §1

MAPK11 (p38 beta) = MAPK11 (p38 beta) (Homo sapiens, UniProt Q15759)
Chain of MAPK11 (p38 beta) (Q15759 whole entry): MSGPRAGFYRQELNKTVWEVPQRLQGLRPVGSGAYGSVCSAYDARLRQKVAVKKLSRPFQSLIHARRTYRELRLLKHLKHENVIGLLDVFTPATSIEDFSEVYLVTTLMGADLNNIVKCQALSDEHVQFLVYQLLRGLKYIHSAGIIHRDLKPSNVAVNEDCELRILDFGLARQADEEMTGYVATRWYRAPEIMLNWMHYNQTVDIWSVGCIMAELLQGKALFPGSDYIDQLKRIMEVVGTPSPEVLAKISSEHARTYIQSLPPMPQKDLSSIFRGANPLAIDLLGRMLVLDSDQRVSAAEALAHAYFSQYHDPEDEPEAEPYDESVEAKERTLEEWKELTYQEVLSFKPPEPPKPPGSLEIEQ
Description: as §1

MAPK13 (p38 delta) = molecular target: T2, MAPK13 (p38 delta) (Homo sapiens, UniProt O15264)
T2 sequence (O15264 1-365): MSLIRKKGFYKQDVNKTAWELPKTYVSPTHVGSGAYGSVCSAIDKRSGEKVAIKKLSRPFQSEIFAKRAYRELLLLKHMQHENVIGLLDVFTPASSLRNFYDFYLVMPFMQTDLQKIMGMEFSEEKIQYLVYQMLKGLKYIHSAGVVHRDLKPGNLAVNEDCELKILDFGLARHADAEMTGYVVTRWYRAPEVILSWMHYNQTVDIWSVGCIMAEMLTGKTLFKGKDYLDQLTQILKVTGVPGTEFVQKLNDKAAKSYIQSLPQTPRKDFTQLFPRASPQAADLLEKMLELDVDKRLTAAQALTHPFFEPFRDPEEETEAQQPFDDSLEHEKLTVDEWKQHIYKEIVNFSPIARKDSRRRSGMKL
Description: as §1

MLK4 = MLK4 (Homo sapiens, UniProt Q5TCX8)
Chain of MLK4 (Q5TCX8 whole entry): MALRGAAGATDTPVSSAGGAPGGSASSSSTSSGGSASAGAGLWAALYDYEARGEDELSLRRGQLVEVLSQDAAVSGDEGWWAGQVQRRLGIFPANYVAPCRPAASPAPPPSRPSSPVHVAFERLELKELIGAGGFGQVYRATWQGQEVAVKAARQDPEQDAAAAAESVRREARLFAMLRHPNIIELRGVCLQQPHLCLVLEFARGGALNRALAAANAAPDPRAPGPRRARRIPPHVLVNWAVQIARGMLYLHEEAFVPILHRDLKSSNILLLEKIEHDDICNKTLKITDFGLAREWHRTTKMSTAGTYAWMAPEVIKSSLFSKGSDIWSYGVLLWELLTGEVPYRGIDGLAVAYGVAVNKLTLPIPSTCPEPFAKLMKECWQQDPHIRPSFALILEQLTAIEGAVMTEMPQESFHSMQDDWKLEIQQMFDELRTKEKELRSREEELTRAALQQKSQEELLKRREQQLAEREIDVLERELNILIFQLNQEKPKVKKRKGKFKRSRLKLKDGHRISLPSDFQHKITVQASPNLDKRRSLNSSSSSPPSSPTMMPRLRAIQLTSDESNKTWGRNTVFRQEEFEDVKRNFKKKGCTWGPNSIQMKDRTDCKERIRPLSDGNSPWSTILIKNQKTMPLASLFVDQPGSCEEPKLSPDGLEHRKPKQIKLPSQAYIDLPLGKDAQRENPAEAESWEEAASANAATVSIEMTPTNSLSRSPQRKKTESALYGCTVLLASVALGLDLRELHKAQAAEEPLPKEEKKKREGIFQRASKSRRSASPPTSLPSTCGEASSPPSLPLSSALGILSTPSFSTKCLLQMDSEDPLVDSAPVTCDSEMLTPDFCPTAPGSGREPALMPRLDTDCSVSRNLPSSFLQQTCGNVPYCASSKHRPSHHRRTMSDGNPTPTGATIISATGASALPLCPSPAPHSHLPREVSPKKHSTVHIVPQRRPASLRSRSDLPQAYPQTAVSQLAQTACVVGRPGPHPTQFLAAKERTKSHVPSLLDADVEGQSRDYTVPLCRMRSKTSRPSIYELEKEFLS
Description: as §1

MYO3A (MYO3 alpha) = MYO3A (MYO3 alpha) (Homo sapiens, UniProt Q8NEV4)
Description: as §1

NEK8 = NEK8 (Homo sapiens, UniProt Q86SG6)
Chain of NEK8 (Q86SG6 whole entry): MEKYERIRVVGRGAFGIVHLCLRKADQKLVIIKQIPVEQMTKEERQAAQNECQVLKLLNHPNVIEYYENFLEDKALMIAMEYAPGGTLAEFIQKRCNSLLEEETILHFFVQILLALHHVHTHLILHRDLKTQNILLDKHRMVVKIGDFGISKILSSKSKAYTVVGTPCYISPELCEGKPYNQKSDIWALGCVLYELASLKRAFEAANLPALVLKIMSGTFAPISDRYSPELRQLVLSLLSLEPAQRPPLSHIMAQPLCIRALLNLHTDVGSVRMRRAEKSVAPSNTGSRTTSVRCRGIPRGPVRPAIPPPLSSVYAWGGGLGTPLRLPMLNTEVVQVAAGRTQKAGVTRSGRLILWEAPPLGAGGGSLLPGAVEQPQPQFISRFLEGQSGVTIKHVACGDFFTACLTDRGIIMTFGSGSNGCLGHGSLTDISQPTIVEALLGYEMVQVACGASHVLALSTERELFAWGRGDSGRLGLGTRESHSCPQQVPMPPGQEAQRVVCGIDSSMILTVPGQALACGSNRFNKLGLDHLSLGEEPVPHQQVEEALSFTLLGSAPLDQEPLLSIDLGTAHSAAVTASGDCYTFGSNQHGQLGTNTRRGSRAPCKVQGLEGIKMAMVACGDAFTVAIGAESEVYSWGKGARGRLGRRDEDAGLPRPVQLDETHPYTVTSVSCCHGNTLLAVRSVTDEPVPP
Description: as §1

PI4KB (PI4K beta) = PI4KB (PI4K beta) (Homo sapiens, UniProt Q9UBF8)
Chain of PI4KB (PI4K beta) (Q9UBF8 whole entry): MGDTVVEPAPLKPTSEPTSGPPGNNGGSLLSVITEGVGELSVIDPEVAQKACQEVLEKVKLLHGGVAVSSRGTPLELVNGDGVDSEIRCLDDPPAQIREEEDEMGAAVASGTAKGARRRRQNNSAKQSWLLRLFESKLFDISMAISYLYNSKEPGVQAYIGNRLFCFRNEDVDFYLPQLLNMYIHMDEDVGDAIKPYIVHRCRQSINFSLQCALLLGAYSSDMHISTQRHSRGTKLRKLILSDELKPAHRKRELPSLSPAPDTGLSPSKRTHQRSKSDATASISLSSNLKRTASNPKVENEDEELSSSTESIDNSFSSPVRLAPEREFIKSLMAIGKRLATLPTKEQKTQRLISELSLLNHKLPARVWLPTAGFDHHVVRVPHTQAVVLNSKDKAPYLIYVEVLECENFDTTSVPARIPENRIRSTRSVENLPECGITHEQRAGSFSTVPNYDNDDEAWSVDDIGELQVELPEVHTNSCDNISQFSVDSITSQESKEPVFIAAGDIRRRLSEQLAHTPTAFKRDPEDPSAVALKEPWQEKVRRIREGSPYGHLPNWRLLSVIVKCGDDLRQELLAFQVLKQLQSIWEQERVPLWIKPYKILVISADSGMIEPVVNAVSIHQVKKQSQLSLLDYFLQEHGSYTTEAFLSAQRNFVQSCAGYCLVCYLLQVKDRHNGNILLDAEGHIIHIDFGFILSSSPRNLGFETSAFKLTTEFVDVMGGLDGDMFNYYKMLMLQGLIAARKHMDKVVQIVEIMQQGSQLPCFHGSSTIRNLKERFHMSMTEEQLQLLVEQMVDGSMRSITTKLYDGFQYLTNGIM
Description: as §1

PIK3C2B (PI3K-C2 beta) = PIK3C2B (PI3K-C2 beta) (Homo sapiens, UniProt O00750)
Description: as §1

PKN2 (PRK2) = PKN2 (PRK2) (Homo sapiens, UniProt Q16513)
Description: as §1

RPS6KB2 (p70S6Kb) = RPS6KB2 (p70S6Kb) (Homo sapiens, UniProt Q9UBS0)
Chain of RPS6KB2 (p70S6Kb) (Q9UBS0 whole entry): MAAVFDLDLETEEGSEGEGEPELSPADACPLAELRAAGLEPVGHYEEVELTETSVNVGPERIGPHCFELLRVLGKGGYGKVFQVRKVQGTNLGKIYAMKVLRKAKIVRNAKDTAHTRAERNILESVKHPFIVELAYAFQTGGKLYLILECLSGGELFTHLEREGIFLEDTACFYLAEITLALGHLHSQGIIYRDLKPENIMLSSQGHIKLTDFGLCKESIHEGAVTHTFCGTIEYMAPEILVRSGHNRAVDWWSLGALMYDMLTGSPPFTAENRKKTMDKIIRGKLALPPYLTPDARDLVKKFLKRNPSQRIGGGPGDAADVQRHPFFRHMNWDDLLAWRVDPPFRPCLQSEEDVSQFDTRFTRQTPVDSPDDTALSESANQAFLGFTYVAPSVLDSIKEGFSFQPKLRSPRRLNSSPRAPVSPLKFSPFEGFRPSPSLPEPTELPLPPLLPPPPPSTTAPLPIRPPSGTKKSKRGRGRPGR
Description: as §1

STK32B (YANK2) = STK32B (YANK2) (Homo sapiens, UniProt Q9NY57)
Chain of STK32B (YANK2) (Q9NY57 whole entry): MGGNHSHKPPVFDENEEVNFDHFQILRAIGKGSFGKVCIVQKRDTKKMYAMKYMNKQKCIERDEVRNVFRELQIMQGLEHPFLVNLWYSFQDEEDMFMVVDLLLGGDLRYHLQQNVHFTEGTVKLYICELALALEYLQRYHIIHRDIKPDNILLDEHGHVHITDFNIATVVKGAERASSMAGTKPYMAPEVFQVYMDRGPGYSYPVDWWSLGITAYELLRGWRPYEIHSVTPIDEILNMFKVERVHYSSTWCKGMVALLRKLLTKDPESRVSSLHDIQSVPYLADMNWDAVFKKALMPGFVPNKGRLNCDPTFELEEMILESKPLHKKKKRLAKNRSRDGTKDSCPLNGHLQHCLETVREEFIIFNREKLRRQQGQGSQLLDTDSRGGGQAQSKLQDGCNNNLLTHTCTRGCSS
Description: as §1

VRK2 = VRK2 (Homo sapiens, UniProt Q86Y07)
Description: as §1

[1] = 1 h, 1 μM WEL028, 1 h preincubation
[2] = read-out: Inhibition at 1 µM (%)
[3] = 1 µM, LanthaScreen Binding, listed as WEL028, 1 µM
[4] = read-out: Inhibition at 1 µM (%), 1 µM, LanthaScreen Binding

Chain of ABL1 (P00519 whole entry): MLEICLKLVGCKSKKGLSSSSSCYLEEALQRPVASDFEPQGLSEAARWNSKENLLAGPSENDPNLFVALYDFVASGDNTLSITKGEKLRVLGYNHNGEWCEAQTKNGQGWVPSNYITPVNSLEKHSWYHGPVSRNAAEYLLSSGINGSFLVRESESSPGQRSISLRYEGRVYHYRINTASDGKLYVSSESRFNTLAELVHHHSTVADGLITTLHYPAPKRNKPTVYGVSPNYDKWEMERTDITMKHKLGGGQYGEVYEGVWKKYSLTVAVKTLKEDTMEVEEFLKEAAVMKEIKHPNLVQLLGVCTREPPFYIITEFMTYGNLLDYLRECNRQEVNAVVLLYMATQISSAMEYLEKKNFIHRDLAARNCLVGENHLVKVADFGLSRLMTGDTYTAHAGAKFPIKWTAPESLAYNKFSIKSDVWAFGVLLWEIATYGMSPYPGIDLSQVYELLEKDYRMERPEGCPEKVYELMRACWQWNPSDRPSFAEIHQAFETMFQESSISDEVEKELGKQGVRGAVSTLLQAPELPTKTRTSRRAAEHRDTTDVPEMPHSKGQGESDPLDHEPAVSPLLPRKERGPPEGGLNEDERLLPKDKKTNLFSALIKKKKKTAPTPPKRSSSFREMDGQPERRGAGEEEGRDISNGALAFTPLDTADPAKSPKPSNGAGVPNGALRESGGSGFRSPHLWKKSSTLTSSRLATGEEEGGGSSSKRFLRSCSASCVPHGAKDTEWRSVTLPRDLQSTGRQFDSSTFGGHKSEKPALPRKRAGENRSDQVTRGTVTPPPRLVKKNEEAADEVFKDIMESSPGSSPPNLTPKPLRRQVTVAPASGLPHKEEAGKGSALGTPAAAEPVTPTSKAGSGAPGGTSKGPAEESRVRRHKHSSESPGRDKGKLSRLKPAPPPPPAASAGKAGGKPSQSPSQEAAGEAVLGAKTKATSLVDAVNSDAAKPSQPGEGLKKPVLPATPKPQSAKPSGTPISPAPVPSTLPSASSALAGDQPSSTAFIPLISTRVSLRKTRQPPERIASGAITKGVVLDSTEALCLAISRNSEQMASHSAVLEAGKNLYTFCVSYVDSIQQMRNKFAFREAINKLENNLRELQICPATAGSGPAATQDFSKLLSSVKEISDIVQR

Question: What does the source list for `C#CCOc1ccc(Nc2ncc(Cl)c(Nc3ccccc3NC(=O)C=C)n2)c(OC)c1` [Compound 6]?
Answer: inhibition at 1 µM (ABL1; [1]): -3%; Inhibition at 1 µM (%) (ABL1; ABL1, 1 µM, ZLYTE, ATP Km app, listed as WEL028, 1 µM): -7% and 1%; inhibition at 1 µM (ACVR1 (ALK2); [1]): 2%; inhibition at 1 µM (ACVR1 (ALK2); read-out: Inhibition at 1 µM (%), ACVR1 (ALK2), 1 µM, LanthaScreen Binding): 3%; inhibition at 1 µM (BRSK2; [1]): 7%; Inhibition at 1 µM (%) (BRSK2; BRSK2, 1 µM, LanthaScreen Binding, listed as WEL028, 1 µM): 8%; inhibition at 1 µM (BRSK2; read-out: Inhibition at 1 µM (%), BRSK2, 1 µM, LanthaScreen Binding): 7%; Inhibition (%) (EGFR (ErbB1); 1 μM WEL028, 1 h preincubation): 6%; Inhibition at 1 µM (%) (EGFR (ErbB1); EGFR (ErbB1), 1 µM, ZLYTE, ATP Km app, listed as WEL028, 1 µM): 8%; inhibition at 1 µM (EGFR (ErbB1); read-out: Inhibition at 1 µM (%), EGFR (ErbB1), 1 µM, ZLYTE, ATP Km app): 4%; inhibition at 1 µM (EPHA8; 1 h): -7%; inhibition at 1 µM (EPHA8; [2]): -7%; Apparent fold selectivity (FLT4 (VEGFR3)): 50 fold; inhibition at 1 µM (GRK7): 11%; inhibition at 1 µM (IKBKE (IKK epsilon)): 2%; inhibition at 1 µM (MAPK11 (p38 beta); [1]): 6%; Inhibition at 1 µM (%) (MAPK11 (p38 beta); MAPK11 (p38 beta), 1 µM, ZLYTE, ATP Km app, listed as WEL028, 1 µM): 7%; inhibition at 1 µM (MAPK11 (p38 beta); read-out: Inhibition at 1 µM (%), MAPK11 (p38 beta), 1 µM, ZLYTE, ATP Km app): 6%; inhibition at 1 µM (MAPK13 (p38 delta); [1]): 5%; Inhibition at 1 µM (%) (MAPK13 (p38 delta); MAPK13 (p38 delta), 1 µM, ZLYTE, ATP Km app, listed as WEL028, 1 µM): 6%; inhibition at 1 µM (MAPK13 (p38 delta); read-out: Inhibition at 1 µM (%), MAPK13 (p38 delta), 1 µM, ZLYTE, ATP Km app): 4%; inhibition at 1 µM (MLK4; [1]): 3%; Inhibition at 1 µM (%) (MLK4; MLK4, 1 µM, LanthaScreen Binding, listed as WEL028, 1 µM): 6% and 0%; inhibition at 1 µM (MYO3A (MYO3 alpha); [1]): 17%; Inhibition at 1 µM (%) (MYO3A (MYO3 alpha); MYO3A (MYO3 alpha), 1 µM, LanthaScreen Binding, listed as WEL028, 1 µM): 16%; inhibition at 1 µM (MYO3A (MYO3 alpha); read-out: Inhibition at 1 µM (%), MYO3A (MYO3 alpha), 1 µM, LanthaScreen Binding): 18%; inhibition at 1 µM (NEK8; [1]): 7%; Inhibition at 1 µM (%) (NEK8; NEK8, 1 µM, LanthaScreen Binding, listed as WEL028, 1 µM): 2% and 12%; inhibition at 1 µM (PI4KB (PI4K beta); [1]): 34%; Inhibition at 1 µM (%) (PI4KB (PI4K beta); PI4KB (PI4K beta), 1 µM, Adapta, ATP Km app, listed as WEL028, 1 µM): 37%; inhibition at 1 µM (PI4KB (PI4K beta); read-out: Inhibition at 1 µM (%), PI4KB (PI4K beta), 1 µM, Adapta, ATP Km app): 30%; inhibition at 1 µM (PIK3C2B (PI3K-C2 beta); 1 h): -1%; inhibition at 1 µM (PIK3C2B (PI3K-C2 beta); [2]): -1%; inhibition at 1 µM (PKN2 (PRK2); [1]): 8%; Inhibition at 1 µM (%) (PKN2 (PRK2); PKN2 (PRK2), 1 µM, LanthaScreen Binding, listed as WEL028, 1 µM): 9%; inhibition at 1 µM (PKN2 (PRK2); read-out: Inhibition at 1 µM (%), PKN2 (PRK2), 1 µM, LanthaScreen Binding): 6%; Inhibition at 1 µM (%) (RPS6KB2 (p70S6Kb); 1 µM, ZLYTE, ATP Km app, listed as WEL028, 1 µM): 1% and 4%; inhibition at 1 µM (RPS6KB2 (p70S6Kb); [1]): 3%; Inhibition at 1 µM (%) (STK32B (YANK2); [3]): 6%; inhibition at 1 µM (STK32B (YANK2); [1]): 7%; inhibition at 1 µM (STK32B (YANK2); [4]): 7%; Inhibition at 1 µM (%) (VRK2; [3]): 19%; inhibition at 1 µM (VRK2; [1]): 16%; inhibition at 1 µM (VRK2; [4]): 14%
